EC50 data for 25 molecules are collected here from patent publication US9663473B2 (Actelion Pharmaceuticals Ltd, priority 2013, dated 2017).

As a reminder, the EC50 is the concentration at which the effect is half-maximal.

The experiment has as its target T1, recombinant human ALX receptor (Homo sapiens, UniProt P25090).
T1 construct: expressed in transfected cells; host or cells: HEK293 (HEK293-hALXR-Gα16)
T1 sequence (P25090 1-351): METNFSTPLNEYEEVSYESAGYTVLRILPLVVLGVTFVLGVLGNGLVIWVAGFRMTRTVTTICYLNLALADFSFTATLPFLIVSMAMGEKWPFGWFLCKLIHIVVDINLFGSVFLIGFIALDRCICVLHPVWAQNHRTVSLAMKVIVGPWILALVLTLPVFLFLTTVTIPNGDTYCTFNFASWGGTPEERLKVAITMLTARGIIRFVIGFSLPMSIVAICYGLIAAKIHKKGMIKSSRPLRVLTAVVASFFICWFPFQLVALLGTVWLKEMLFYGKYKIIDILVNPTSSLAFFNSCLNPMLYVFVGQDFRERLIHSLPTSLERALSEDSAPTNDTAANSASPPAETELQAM
As to the kind of experiment: Intracellular calcium measurements (FLIPR), ALX receptor agonistic activity. As to conditions: HEK293-hALXR-Gα16 cells, Fluo-4 calcium signal, normalized to WKYMVm 10 nM. Type of experiment: cell-based. In short, it runs like this: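 Agonist-induced calcium flux was read by FLIPR (488/540 nm) as baseline-subtracted peak emission, expressed relative to WKYMVm at 10 nM final. Cells used: HEK293-hALXR-Gα16, dye-loaded 60 min at 37° C. with 1 μM Fluo-4 AM before compound dose-response addition.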
In general terms: Calcium flux is commonly read through the fluorescence of an indicator in the cells.
As for `COc1ccc(C[C@@H](NC(=O)N[C@H]2CC[C@H](O)CC2)c2nc3ccccc3[nH]2)cc1` [Example 4, 1-((R)-1-(1H-Benzo[d]imidazol-2-yl)-2-(4-methoxyphenyl)ethyl)-3-(trans-4-hydroxycyclohexyl)urea], the EC50 was 7.8 nM. Next, `COc1ccc(C[C@@H](NC(=O)NCC2CCCc3ccccc32)c2nc3ccccc3[nH]2)cc1` (stereo partly drawn) [Example 305, 1-((R)-1-(1H-Benzo[d]imidazol-2-yl)-2-(4-methoxyphenyl)ethyl)-3-((1,2,3,4-tetrahydronaphthalen-1-yl)methyl)urea]: 80 nM.

As to `COc1ccc(C[C@@H](NC(=O)N[C@@H](C)c2ccc(Cl)cc2)c2nc3ccccc3[nH]2)cc1` [Example 328, 1-((R)-1-(1H-Benzo[d]imidazol-2-yl)-2-(4-methoxyphenyl)ethyl)-3-((S)-1-(4-chlorophenyl)ethyl)urea], the EC50 is 152 nM. Next, `COc1ccc(C[C@@H](NC(=O)NCc2ccccc2C)c2nc3ccccc3[nH]2)cc1` [Example 202, (R)-1-(1-(1H-Benzo[d]imidazol-2-yl)-2-(4-methoxyphenyl)ethyl)-3-(2-methylbenzyl)urea]: 602 nM. For `CC[C@H](NC(=O)N[C@H](Cc1ccc(OC)cc1)c1nc2ccccc2[nH]1)c1ccccc1` [Example 345, 1-((R)-1-(1H-Benzo[d]imidazol-2-yl)-2-(4-methoxyphenyl)ethyl)-3-((S)-1-phenylpropyl)urea], the EC50 is 127 nM. The figure for `COc1ccc(C[C@@H](NC(=O)N[C@@H](C)c2ccc(C)cc2)c2nc3ccccc3[nH]2)cc1` [Example 333, 1-((R)-1-(1H-Benzo[d]imidazol-2-yl)-2-(4-methoxyphenyl)ethyl)-3-((S)-1-(p-tolyl)ethyl)urea] is 105 nM; for `COc1ccc(CC(NC(=O)NC2CCCC(O)C2)c2nc3ccccc3[nH]2)cc1` (stereo not shown) [Example 37, 1-(1-(1H-Benzo[d]imidazol-2-yl)-2-(4-methoxyphenyl)ethyl)-3-(3-hydroxycyclohexyl)urea] it is 27 nM; for `COc1ccc(C[C@@H](NC(=O)N[C@@H]2CCCNC2)c2nc3ccccc3[nH]2)cc1` [Example 131, 1-((R)-1-(1H-Benzo[d]imidazol-2-yl)-2-(4-methoxyphenyl)ethyl)-3-((R)-piperidin-3-yl)urea] it is 15 nM.

For `COc1ccc(C[C@@H](NC(=O)N2CCCCC2)c2nc3ccccc3[nH]2)cc1` [Example 86, (R)—N-(1-(1H-Benzo[d]imidazol-2-yl)-2-(4-methoxyphenyl)ethyl)piperidine-1-carboxamide], the EC50 was determined as 400 nM. `COc1ccc(CC(NC(=O)Nc2ccnn2C(C)(C)C)c2nc3ccccc3[nH]2)cc1` (stereo not shown) [Example 414, 1-(1-(1H-benzo[d]imidazol-2-yl)-2-(4-methoxyphenyl)ethyl)-3-(1-(tert-butyl)-1H-pyrazol-5-yl)urea]: the EC50 was 30 nM.

`COc1ccc(C[C@@H](NC(=O)NCc2ccccc2Cn2cncn2)c2nc3ccccc3[nH]2)cc1` [Example 31, (R)-1-(2-((1H-1,2,4-Triazol-1-yl)methyl)benzyl)-3-(1-(1H-benzo[d]imidazol-2-yl)-2-(4-methoxyphenyl)ethyl)urea]: the EC50 was determined as 26 nM. Next, `COc1ccc(C[C@@H](NC(=O)N[C@H](CO)c2ccccc2)c2nc3ccccc3[nH]2)cc1` [Example 203, 1-((R)-1-(1H-Benzo[d]imidazol-2-yl)-2-(4-methoxyphenyl)ethyl)-3-((S)-2-hydroxy-1-phenylethyl)urea]: 176 nM; `COc1ccc(C[C@@H](NC(=O)N[C@H]2CC[C@H](O)CC2)c2nc3ccc(C#N)cc3[nH]2)cc1` [Example 152, 1-((R)-1-(6-Cyano-1H-benzo[d]imidazol-2-yl)-2-(4-methoxyphenyl)ethyl)-3-(trans-4-hydroxycyclohexyl)urea]: 6.2 nM; `COc1ccc(C[C@@H](NC(=O)N[C@H]2CC[C@H](O)C2)c2nc3ccccc3[nH]2)cc1` (relative stereo) [Example 172, 1-((R)-1-(1H-Benzo[d]imidazol-2-yl)-2-(4-methoxyphenyl)ethyl)-3-((1 S*,3S*)-3-hydroxycyclopentyl)urea]: 15 nM. Consider `COc1ccc(C[C@@H](NC(=O)NCc2nc(C(C)(F)F)co2)c2nc3ccccc3[nH]2)cc1` [Example 423, (R)-1-(1-(1H-benzo[d]imidazol-2-yl)-2-(4-methoxyphenyl)ethyl)-3-((4-(1,1-difluoroethyl)oxazol-2-yl)methyl)urea], for which the EC50 is 565 nM. For the molecule `COc1ccc(C[C@@H](NC(=O)NCc2c(Cl)cccc2Cl)c2nc3ccccc3[nH]2)cc1` [Example 304, (R)-1-(1-(1H-Benzo[d]imidazol-2-yl)-2-(4-methoxyphenyl)ethyl)-3-(2,6-dichlorobenzyl)urea], the concentration for a half-maximal effect (EC50) was determined as 141 nM. Next, `COc1ccc(C[C@@H](NC(=O)NCCc2ccc(F)c(F)c2)c2nc3ccccc3[nH]2)cc1` [Example 300, (R)-1-(1-(1H-Benzo[d]imidazol-2-yl)-2-(4-methoxyphenyl)ethyl)-3-(3,4-difluorophenethyl)urea]: 82 nM; `COc1ccc(C[C@@H](NC(=O)NCC(C)c2ccccc2)c2nc3ccccc3[nH]2)cc1` (stereo partly drawn) [Example 197, 1-((R)-1-(1H-Benzo[d]imidazol-2-yl)-2-(4-methoxyphenyl)ethyl)-3-(2-phenylpropyl)urea]: 50 nM. `COc1ccc(CC(NC(=O)NC23CCC(O)(CC2)CC3)c2nc3ccccc3[nH]2)cc1F` (stereo not shown) [Example 193, 1-(1-(1H-Benzo[d]imidazol-2-yl)-2-(3-fluoro-4-methoxyphenyl)ethyl)-3-(4-hydroxybicyclo[2.2.2]octan-1-yl)urea]: the EC50 amounted to 1.8 nM. For `COc1ccc(C[C@@H](NC(=O)NCC2(c3ccccc3)CCCCC2)c2nc3ccccc3[nH]2)cc1` [Example 278, (R)-1-(1-(1H-Benzo[d]imidazol-2-yl)-2-(4-methoxyphenyl)ethyl)-3-((1-phenylcyclohexyl)methyl)urea], the EC50 was 51 nM. Next, `COc1ccc(C[C@@H](NC(=O)NCc2ccn(CC(F)(F)F)n2)c2nc3ccccc3[nH]2)cc1` [Example 293, (R)-1-(1-(1H-Benzo[d]imidazol-2-yl)-2-(4-methoxyphenyl)ethyl)-3-((1-(2,2,2-trifluoroethyl)-1H-pyrazol-3-yl)methyl)urea]: 168 nM; `COc1ccc(C[C@@H](NC(=O)NC2CCC(F)(F)CC2)c2nc3ccccc3[nH]2)cc1` [Example 14, (R)-1-(1-(1H-Benzo[d]imidazol-2-yl)-2-(4-methoxyphenyl)ethyl)-3-(4,4-difluorocyclohexyl)urea]: 38 nM; `COc1ccc(C[C@@H](NC(=O)NC2CCc3cccc(OC)c3C2)c2nc3ccccc3[nH]2)cc1` (stereo partly drawn) [Example 30, 1-((R)-1-(1H-Benzo[d]imidazol-2-yl)-2-(4-methoxyphenyl)ethyl)-3-(8-methoxy-1,2,3,4-tetrahydronaphthalen-2-yl)urea]: 26 nM. Next, `COc1ccc(C[C@@H](NC(=O)NCCO)c2nc3ccccc3[nH]2)cc1` [Example 94, (R)-1-(1-(1H-Benzo[d]imidazol-2-yl)-2-(4-methoxyphenyl)ethyl)-3-(2-hydroxyethyl)urea]: 570 nM. `COc1ccc(C[C@@H](NC(=O)N[C@@H](C)c2ccc(F)cc2)c2nc3ccccc3[nH]2)cc1` [Example 321, 1-((R)-1-(1H-Benzo[d]imidazol-2-yl)-2-(4-methoxyphenyl)ethyl)-3-((S)-1-(4-fluorophenyl)ethyl)urea]: the EC50 was found to be 128 nM.
